Source: US10301355B2, “Method of using pharmaceutical compositions comprising selective peptide-based agonists of melanocortin 1 receptor” (University of Cincinnati, priority 2012, dated 2019)
Entries after “also recorded” stand apart in the source; their conditions may differ. One block for each molecule: values may come before it.

Experiments:
MC1R [1] = biological target: T1, MC1R (Homo sapiens, UniProt Q01726); assay: Stimulation of cAMP formation in cultured human melanocytes; assay type: cell-based; set-up: endogenous in cells; host or cells: cultured human melanocytes; conditions: for cAMP compared to 10 nM αMSH: cultured human melanocytes
T1 sequence (Q01726 whole entry): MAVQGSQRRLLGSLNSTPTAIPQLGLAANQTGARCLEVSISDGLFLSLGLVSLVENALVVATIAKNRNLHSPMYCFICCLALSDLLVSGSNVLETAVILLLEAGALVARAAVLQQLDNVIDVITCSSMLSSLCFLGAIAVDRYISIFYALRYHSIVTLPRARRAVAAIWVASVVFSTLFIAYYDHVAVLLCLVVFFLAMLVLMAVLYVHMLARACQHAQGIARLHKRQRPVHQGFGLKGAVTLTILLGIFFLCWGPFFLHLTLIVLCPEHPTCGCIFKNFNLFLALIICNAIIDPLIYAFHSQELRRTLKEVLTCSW
Method: Peptides were tested on cultured human melanocytes for their capacity to activate MC1R, as measured by stimulating cAMP formation. After 45 minutes of treatment with different concentrations of peptides, cAMP levels were measured using a I^125-labeled radioimmunoassay kit.
(§1) Peptides were tested as described in Example 4 above on cultured human melanocytes for their capacity to activate MC1R, as measured by stimulating cAMP formation, and for their capacity for stimulating tyrosinase activity, the rate-limiting enzyme for melanin synthesis. The tested peptides were synthesized according to the formula: Ar(CH2)mX^1—X^2—CO—X^3—X^4—X^5-(Trp)n-NX^6R wherein X^1 and X^2 are absent, X^3 is His, X^5 is Arg, and X^6 is H. X^4 amino acids were in the D-stereoisomer form, unless otherwise noted.

tyrosinase = assay: Stimulation of tyrosinase activity in cultured human melanocytes; assay type: cell-based; conditions: for TA compared to 10 nM αMSH: tyrosinase activity, cultured human melanocytes; for concentration at which significant stimulation of tyrosinase activity begins / effect on tyrosinase activity, comparison: human melanocytes, 6 days treatment
Method: Peptides were tested on cultured human melanocytes for their capacity for stimulating tyrosinase activity, the rate-limiting enzyme for melanin synthesis. Melanocytes were treated every other day, for a total of 6 days, with increasing concentrations of peptides. Medium containing H^3-tyrosine, the substrate for tyrosinase, was added to melanocytes 24 hours before the end of the 6-day treatment. Tyrosinase activity was measured by determining the amount of ^3H2O generated as […] is catalyzed by tyrosinase for melanin synthesis.
as §1

hMC3R = biological target: T2, hMC3R (Homo sapiens, UniProt P41968); assay: cAMP stimulation in heterologous cells expressing hMC3R; assay type: cell-based
T2 construct: expressed in transfected cells
T2 sequence (P41968 whole entry): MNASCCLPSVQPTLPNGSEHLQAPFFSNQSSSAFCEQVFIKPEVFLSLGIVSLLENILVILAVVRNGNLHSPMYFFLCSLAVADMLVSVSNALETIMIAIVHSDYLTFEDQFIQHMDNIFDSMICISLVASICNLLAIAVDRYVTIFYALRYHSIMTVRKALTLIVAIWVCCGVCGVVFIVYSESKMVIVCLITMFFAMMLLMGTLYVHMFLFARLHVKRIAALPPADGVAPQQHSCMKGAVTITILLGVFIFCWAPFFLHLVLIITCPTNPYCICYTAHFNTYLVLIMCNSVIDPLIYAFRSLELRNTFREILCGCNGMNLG
Method: (§2) Receptor selectivity of peptide agonists for hMC1R was determined by stimulation of cAMP in heterologous cells expressing different human melanocortin receptors (MC1R, MC3R, MC4R, and MC5R).

hMC4R = biological target: T3, hMC4R (Homo sapiens, UniProt P32245); assay: cAMP stimulation in heterologous cells expressing hMC4R; assay type: cell-based
T3 construct: expressed in transfected cells
T3 sequence (P32245 whole entry): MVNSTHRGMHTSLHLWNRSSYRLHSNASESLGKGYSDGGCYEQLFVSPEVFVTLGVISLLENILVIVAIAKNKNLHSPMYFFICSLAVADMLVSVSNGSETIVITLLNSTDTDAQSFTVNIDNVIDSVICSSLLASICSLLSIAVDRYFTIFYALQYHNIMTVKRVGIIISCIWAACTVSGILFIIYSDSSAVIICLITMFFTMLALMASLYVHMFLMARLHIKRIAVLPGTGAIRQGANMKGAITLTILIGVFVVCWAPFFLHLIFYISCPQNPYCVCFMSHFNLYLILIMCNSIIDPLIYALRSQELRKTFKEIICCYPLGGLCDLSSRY
Method: as §2

hMC5R = biological target: T4, hMC5R (Homo sapiens, UniProt P33032); assay: cAMP stimulation in heterologous cells expressing hMC5R; assay type: cell-based
T4 construct: expressed in transfected cells
T4 sequence (P33032 whole entry): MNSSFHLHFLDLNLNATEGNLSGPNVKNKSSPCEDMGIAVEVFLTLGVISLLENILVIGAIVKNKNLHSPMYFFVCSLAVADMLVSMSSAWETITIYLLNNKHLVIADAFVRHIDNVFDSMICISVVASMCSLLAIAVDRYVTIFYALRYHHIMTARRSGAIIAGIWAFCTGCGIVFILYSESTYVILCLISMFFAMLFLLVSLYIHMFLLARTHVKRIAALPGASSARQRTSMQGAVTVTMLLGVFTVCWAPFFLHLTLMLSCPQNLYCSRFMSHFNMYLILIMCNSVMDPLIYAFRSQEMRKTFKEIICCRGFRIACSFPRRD
Method: as §2

[2] = test system: UV-irradiated human melanocytes; assay: Repair of UV-induced 8-oxodG; assay type: cell-based; conditions: peptide at 100 nM, 24 hours post UV
Method: To investigate the effects of peptides on repair of UV-induced DNA damage, levels of 8-oxodG, a major form of oxidative DNA damage, were measured in UV-irradiated human melanocytes with or without peptide treatment. […] Fluorescence intensity, which correlates with the amount of DNA damage, was quantified using ImagJ software.

MC1R [3] = biological target: T1, MC1R; assay: cAMP stimulation in heterologous cells expressing hMC1R; assay type: cell-based; set-up: expressed in transfected cells; conditions: for HMC1R % MAX. ACTIVITY: cAMP, heterologous cells
Method: as §2

[4] = test system: UV-irradiated human melanocytes; assay: Repair of UV-induced cyclobutane pyrimidine dimers (CPD); assay type: cell-based; conditions: peptide at 1 nM, 48 hours post UV
Method: To investigate the effects of peptides on the repair of UV-induced DNA damage, levels of cyclobutane pyrimidine dimers (CPD), the major form of DNA photoproducts, were measured in UV-irradiated human melanocytes with or without peptide treatment. Melanocytes were pretreated with the peptides for 4 days prior to, and for 48 hours post UV exposure, harvested, immunostained by a specific antibody for CPD, and analyzed by flow cytometry.

[5] = Peptide storage stability by HPLC; assay type: physicochemical; conditions: lyophilized, open air, room temperature, 4 months
Method: LK-513 (Ph(CH2)3CO-His-(D-4-Bip)-Arg-NHMe) was tested for stability and degradation over a storage period. The peptide was stored in a lyophilized form in open air at room temperature for 4 months. After 4 months, HPLC was performed on a test sample of the peptide in order to measure degradation, using standard methods (FIG. 1). […] Without being bound by theory, it is believed that the enhanced stability is a product of the absence of amide bonds between natural L-L-amino acids in the tripeptides and the existence of only one amide bond between natural amino acids in the tetrapeptides (Arg-Trp). Amide bonds between non-natural D- and natural L-amino acids are less prone to chemical and enzymatic hydrolysis, as evidenced by the FIG. 1. Further, the bulk and hydrophobicity of the X4 amino acid (D-Phe or a bulky hydrophobic analog thereof, such as D-4-Bip in the case of LK-513) shield the polar amid bonds of the peptide from chemical and enzymatic degradation.

[6] = human melanocytes, 45 minutes of treatment

Molecule: Ph(CH2)3CO-His-(D-4-ClPhe)-Arg-Trp-NH2 [473P]
cAMP compared to 10 nM αMSH (MC1R [1]): =; >

Molecule: Ph(CH2)3CO-His-(D-4-IPhe)-Arg-Trp-NH2 [475P]
cAMP compared to 10 nM αMSH (MC1R [1]): <; >

Molecule: Ph(CH2)3CO-His-(D-2-Thi)-Arg-Trp-NH2 [476P]
cAMP compared to 10 nM αMSH (MC1R [1]): >

Molecule: 4-FC6H4CH2CO-His-(D-4-Bip)-Arg-NHEt [497P]
cAMP compared to 10 nM αMSH (MC1R [1]): NR (NR = No Response/inactive at 10 nM)

Molecule: Ph(CH2)3CO-His-(D-3-NO2Phe)-Arg-Trp-NH2 [472P]
cAMP compared to 10 nM αMSH (MC1R [1]): <

Molecule: Ph(CH2)3CO-His-(D-4-FPhe)-Arg-Trp-NH2 [470P]
cAMP compared to 10 nM αMSH (MC1R [1]): >

Molecule: Ph(CH2)3CO-His-(D-2-Nal)-Arg-NHEt [492P]
cAMP compared to 10 nM αMSH (MC1R [1]): NR (NR = No Response/inactive at 10 nM)

Molecule: 4-FC6H4CH2CO-His-(D-4-tBuPhe)-Arg-NHEt [498P]
cAMP compared to 10 nM αMSH (MC1R [1]): NR** (NR = No Response/inactive at 10 nM)

Molecule: Ph(CH2)3CO-His-(D-4-NO2Phe)-Arg-Trp-NH2 [471P]
cAMP compared to 10 nM αMSH (MC1R [1]): =

Molecule: 4-FC6H4CH2CO-His-(D-4-FPhe)-Arg-Trp-NH2 [205P]
TA compared to 10 nM αMSH (tyrosinase): ≥
cAMP compared to 10 nM αMSH (MC1R [1]): ≤

Now from value to molecule, other results behind:

TA compared to 10 nM αMSH (tyrosinase): <<
Molecule: Ph(CH2)3CO-His-(D-2-Nal)-Arg-NH2 [515P]

TA compared to 10 nM αMSH (tyrosinase): NR (NR = No Response/inactive at 10 nM)
Molecule: Ph(CH2)3CO-His-(D-1-Nal)-Arg-NHMe [512P]

binding of MC3R (hMC3R): do not bind
binding of MC4R (hMC4R): do not bind
binding of MC5R (hMC5R): do not bind
concentration at which significant stimulation of tyrosinase activity begins (tyrosinase): 1 nM
effect on tyrosinase activity, comparison (tyrosinase): the most effective
TA compared to 10 nM αMSH (tyrosinase): <
potency in activation of MC1R compared with MT-II (MC1R [3]): about as potent as MT-II
HMC1R % MAX. ACTIVITY (MC1R [3]): 94%
cAMP compared to 10 nM αMSH (MC1R [1]): <
Molecule: CC(C)(C)c1ccc(C[C@@H](NC(=O)[C@H](Cc2c[nH]cn2)NC(=O)CCCc2ccccc2)C(=O)N[C@@H](CCCNC(=N)N)C(N)=O)cc1 [LK-514, Ph(CH2)3CO-His-(D-4-tBuPhe)-Arg-NH2]
reduction of 8-oxodG levels compared with 1 nM α-MSH [2]: greater effect than 1 nM α-MSH
potency in stimulating cAMP formation, comparison (MC1R [1]; [6]): about ten times less potent than a-MSH; also recorded: more potent than LK-511 or 513; also recorded: about ten times less potent than α-MSH; also recorded: more potent than LK-511 or LK-513

TA compared to 10 nM αMSH (tyrosinase): <<
Molecule: Ph(CH2)3CO-His-(D-4-tBuPhe)-Arg-NHMe [516P]

HMC3R % MAX. ACTIVITY (hMC3R; cAMP, heterologous cells): 85%
HMC4R % MAX. ACTIVITY (hMC4R; cAMP, heterologous cells): 102%
HMC5R % MAX. ACTIVITY (hMC5R; cAMP, heterologous cells): 39%
HMC1R % MAX. ACTIVITY (MC1R [3]): 128%
concentration giving maximal levels of cAMP (MC1R [1]; [6]): 10 nM
Molecule: N=C(N)NCCC[C@H](NC(=O)[C@@H](Cc1ccccc1)NC(=O)[C@H](Cc1c[nH]cn1)NC(=O)CCCc1ccccc1)C(=O)N[C@@H](Cc1c[nH]c2ccccc12)C(N)=O [LK-184, Ph(CH2)3CO-His-(D-Phe)-Arg-Trp-NH2]
effect on tyrosinase activity, comparison (tyrosinase): comparable effects in tyrosinase activity
CPD removal compared with 10 nM α-MSH [4]: same effect at 1 nM on CPD removal as 10 nM a-MSH; also recorded: same effect at 1 nM on CPD removal as 10 nM α-MSH

binding of MC3R (hMC3R): do not bind
binding of MC4R (hMC4R): do not bind
binding of MC5R (hMC5R): do not bind
concentration at which significant stimulation of tyrosinase activity begins (tyrosinase): 1 nM
TA compared to 10 nM αMSH (tyrosinase): <
potency in activation of MC1R compared with MT-II (MC1R [3]): about as potent as MT-II
HMC1R % MAX. ACTIVITY (MC1R [3]): 95%
cAMP compared to 10 nM αMSH (MC1R [1]): <
Molecule: CNC(=O)[C@H](CCCNC(=N)N)NC(=O)[C@@H](Cc1ccc(-c2ccccc2)cc1)NC(=O)[C@H](Cc1c[nH]cn1)NC(=O)CCCc1ccccc1 [LK-513, Ph(CH2)3CO-His-(D-4-Bip)-Arg-NHMe]
stability and degradation on storage (HPLC) [5]: highly stable and resistant to degradation, showing only a single HPLC peak; also recorded: highly stable and substantially free of degradation
potency in stimulating cAMP formation, comparison (MC1R [1]; [6]): about ten times less potent than a-MSH; also recorded: about ten times less potent than α-MSH
